Like-named read-outs stand apart in the source and are kept apart here.
What was measured:
SD rats [1] = experiment: Anesthetic effect (minimum effective anesthetic dose, LORR) after single tail vein injection in rats; assay type: in vivo
Protocol: The dose at which the LORR first occur was determined as the minimum effective anesthetic dose. The minimum effective anesthetic dose is further classified as: A≤5 mg/kg; 5 mg/kg<B≤10 mg/kg; 10 mg/kg<C≤20 mg/kg; D>20 mg/kg in this invention.
The Up and down method was used to determine the ED50 of the compound causing the LORR. […] After observing five consecutive consistent directional changes in LORR occurrence and recovery, the ED50 was calculated using the Dixon-Mood formula. After determining the ED50, the onset time, duration of anesthesia, and emergence time of anesthesia were determined at an injection dose of 2ED50.
In the above experiments, in addition to recording the dose at which the LORR occurred, the onset time and emergence time of anesthesia, the duration of the LORR, and the duration of sedative effects could also be recorded. Meanwhile, circulatory effects experiments can be added to observe the effects of the compound on circulation and respiration in rats.

[2] = Solubility determination of salt forms of the compounds (10 mg, ultrapure water added incrementally); assay type: physicochemical; details: 10 mg of the salt form, 25° C.±2° C., class = water volume used
Protocol: A weighed amount of 10 mg of the compound's salt form was placed in a vessel at 25° C.±2° C. Ultrapure water was added incrementally. The mixture was vigorously shaken for 30 seconds every 5 minutes and observed for 30 minutes. When no undissolved particles or droplets remained in the test system, the water solubility of the salt form was recorded according to the following criteria: • A: Water volume used is less than 0.1 mL; • B: Water volume used is greater than or equal to 0.1 mL and less than 1.0 mL; • C: Water volume used is greater than or equal to 1.0 mL and less than 5.0 mL.

SD rats [3] = details: tail vein, ratio of minimum lethal dose to minimum effective anesthetic dose
Protocol: SD rats were used, with a single intravenous injection via the tail vein (administration rate of 0.02 ml/s and administration volume of 0.5-1.0 ml per 100 g body weight) in the experiment. The initial dose of the test compound started at 4ED50, and the actual administration dose was calculated based on the body weight measured before the test for each animal. The increase or decrease in subsequent doses was determined based on the results of the experimental animals (whether death occurred). The dose at which death first occurred was determined as the minimum lethal dose. […] The approximate therapeutic index is further classified as: A when the index is ≥5; B when the index is <5 but ≥3; and C when the index is <3.

[4] = assay type: physicochemical
Protocol: Compound A6S (1 eq) was dissolved in Et2O (2 mL) at room temperature, and the corresponding acid (2 eq) was dissolved in Et2O (NO.1-NO.4) or MeOH (NO.5-NO.10). The above acid solution was slowly added to the reaction system containing Compound A6S using a syringe. NO.1-NO.3 was mixed and stirred at room temperature for 1 hour, and NO.5-NO.10 was mixed and stirred at room temperature for 16 hours. The mixture was filtered under suction to get the solid, then the solid was washed with Et2O, and dried to obtain the corresponding salt form of Compound A6S. Then, the solubility of each salt form was tested in ultrapure water.

[5] = well-known to those skilled in the art; cited from earlier work
[6] = intravenous injection; compared to propofol; cited from earlier work
[7] = vehicle DMSO: A3 31.8%, A14 66.7%, A17 79.2%, A21S 66.7%, A23 60%, A24 82.8%
[8] = vehicle DMSO: A3 31.8%, A14 66.7%, A17 79.2%, A21S 66.7%, A23 60%, A24 82.8%, A25S 70%
[9] = vehicle Pure water, sulfate salts

| SMILES | Minimal effective anesthetic dose (SD rats [1]; [8]) | Solubility [2] | Minimal effective anesthetic dose (SD rats [1]; [9]) | Onset time (SD rats [1]; [9]) | Righting Reflex Duration (SD rats [1]; [9]) | Sedation Duration (SD rats [1]; [9]) | other results |
| --- | --- | --- | --- | --- | --- | --- | --- |
| COC(=O)CC(=O)N1CCN(c2cc(C(C)C)c(O)c([C@H](C)C3CC3)c2)CC1 [Compound A3] | C (10 mg/kg<C≤20 mg/kg) | C (C: Water volume used is greater than or equal to 1.0 mL and less than 5.0 mL) |  |  |  |  | Onset time (SD rats [1]; [7]): 0.37 to 0.52 min; Righting Reflex Duration (SD rats [1]; [7]): 1.02 to 2.08 min; Sedation Duration (SD rats [1]; [7]): 6.65 to 8.50 min; Approximate therapeutic index (SD rats [3]; vehicle DMSO: A3 31.8%, A17 79.2%): B (B when the index is <5 but ≥3) |
| COC(=O)[C@@H](C)N1CCN(c2cc(C(C)C)c(O)c([C@H](C)C3CC3)c2)CC1 [Compound A6R] |  |  | A (A≤5 mg/kg) | 0.15 to 0.70 min | 1.72 to 3.82 min | 7.02 to 14.77 min |  |
| COC(=O)[C@H](C)N1CCN(c2cc(C(C)C)c(O)c([C@H](C)C3CC3)c2)CC1 [Compound A6S] |  |  | B (5 mg/kg<B≤10 mg/kg) | 0.47 to 0.73 min | 1.08 to 5.67 min | 7.93 to 15.12 min | Salt formation (Yes/No) ([4]; A6S with Benzenesulfonic acid (NO.6)): Yes; Salt formation (Yes/No) ([4]; A6S with Hydrochloric acid (NO.1)): Yes; Salt formation (Yes/No) ([4]; A6S with Maleic acid (NO.8)): Yes; Salt formation (Yes/No) ([4]; A6S with Methanesulfonic acid (NO.3)): Yes; Salt formation (Yes/No) ([4]; A6S with Oxalic acid dihydrate (NO.7)): Yes; Salt formation (Yes/No) ([4]; A6S with Phosphoric acid (NO.4)): Yes; Salt formation (Yes/No) ([4]; A6S with Sulfuric acid (NO.2)): Yes; Salt formation (Yes/No) ([4]; A6S with p-Toluenesulfonic acid hydrate (NO.5)): Yes |
| CC(C)c1cc(N2CCN(CCO)CC2)cc([C@H](C)C2CC2)c1O [Compound A7] |  | B (B: Water volume used is greater than or equal to 0.1 mL and less than 1.0 mL) |  |  |  |  |  |
| CC(C)c1cc(N2CCN(CC(=O)OC3COC3)CC2)cc([C@H](C)C2CC2)c1O [Compound A8] |  | B (B: Water volume used is greater than or equal to 0.1 mL and less than 1.0 mL) |  |  |  |  |  |
| COC(=O)CN1CCN(c2cc(C(C)C)c(O)c([C@H](C)C3CC3)c2)CC12CC2 [Compound A11] |  |  | C (10 mg/kg<C≤20 mg/kg) | 0.12 to 0.27 min | 0.68 to 3.12 min | 12.05 to 14.53 min |  |
| COC(=O)CN1CC2CCC(C1)N2c1cc(C(C)C)c(O)c([C@H](C)C2CC2)c1 [Compound A12] |  | A (A: Water volume used is less than 0.1 mL) | C (10 mg/kg<C≤20 mg/kg) | 0.50 to 0.77 min | 1.22 to 7.40 min | 9.90 to 34.25 min | Approximate therapeutic index (SD rats [3]; vehicle Pure water): A (A when the index is ≥5) |
| CC(C)c1cc(N2CCN(CC(=O)OC(C)(C)C)CC2)cc([C@H](C)C2CC2)c1O [Compound A13] |  | A (A: Water volume used is less than 0.1 mL) |  |  |  |  |  |
| CC(C)c1cc(N2CCN(CC(=O)OC(C)(C)C)CC2)cc([C@H](C)C2CC2)c1OCC(=O)OC(C)(C)C [Compound A14] | C (10 mg/kg<C≤20 mg/kg) |  |  |  |  |  | Onset time (SD rats [1]; [7]): 0.18 to 1.63 min; Righting Reflex Duration (SD rats [1]; [7]): 1.95 to 11.67 min; Sedation Duration (SD rats [1]; [7]): 19.40-28.45- min |
| CC(C)c1cc(N2CCN(CC(=O)O)CC2)cc([C@H](C)C2CC2)c1O [Compound A15] |  | A (A: Water volume used is less than 0.1 mL) | D (D>20 mg/kg) |  |  |  |  |
| CC(C)c1cc(N2CCN(CC(=O)OC(C)(C)C)CC2)cc(C(C)C)c1O [Compound A17] | A (A≤5 mg/kg) |  |  |  |  |  | Onset time (SD rats [1]; [7]): 0.15 to 0.63 min; Righting Reflex Duration (SD rats [1]; [7]): 3.67 to 9.38 min; Sedation Duration (SD rats [1]; [7]): 24.42 to 35.32 min |
| CC(C)c1cc(N2CCN(CC(=O)OC(C)(C)C)C3(CC3)C2)cc([C@H](C)C2CC2)c1O [Compound A18] |  |  | B (5 mg/kg<B≤10 mg/kg) | 0.23 to 0.98 min | 3.02 to 19.25 min | 16.47 to 35.57 min |  |
| CC(C)c1cc(N2CCN([C@@H](C)C(=O)OC(C)(C)C)CC2)cc([C@H](C)C2CC2)c1O [Compound A19S] |  |  | B (5 mg/kg<B≤10 mg/kg) | 0.70 to 0.98 min | 2.21 to 5.57 min | 14.55 to 21.30 min |  |
| COC(=O)[C@H](C)N1CCN(c2cc(C(C)C)c(O)c(C(C)C)c2)CC1 [Compound A20S] |  |  | B (5 mg/kg<B≤10 mg/kg) | 0.18 to 0.43 min | 2.18 to 7.48 min | 15.75 to 23.72 min |  |
| CC(C)c1cc(N2CCN([C@@H](C)C(=O)OC(C)(C)C)CC2)cc(C(C)C)c1O [Compound A21S] | B (5 mg/kg<B≤10 mg/kg) |  |  |  |  |  | Onset time (SD rats [1]; [7]): 0.25 to 0.42 min; Righting Reflex Duration (SD rats [1]; [7]): 12.02 to 22.80 min; Sedation Duration (SD rats [1]; [7]): 28.72 to 56.33 min |
| CC[C@@H](C(=O)OC)N1CCN(c2cc(C(C)C)c(O)c([C@H](C)C3CC3)c2)CC1 [Compound A22S] |  | A (A: Water volume used is less than 0.1 mL) |  |  |  |  |  |
| COC(=O)C(C(C)C)N1CCN(c2cc(C(C)C)c(O)c([C@H](C)C3CC3)c2)CC1 (stereo partly shown) [Compound A23] | B (5 mg/kg<B≤10 mg/kg) | C (C: Water volume used is greater than or equal to 1.0 mL and less than 5.0 mL) |  |  |  |  | Onset time (SD rats [1]; [7]): 0.20 to 0.22 min; Righting Reflex Duration (SD rats [1]; [7]): 4.93 to 15.08 min; Sedation Duration (SD rats [1]; [7]): 30.48 to 39.13 min |
| COC(=O)C(C1CC1)N1CCN(c2cc(C(C)C)c(O)c([C@H](C)C3CC3)c2)CC1 (stereo partly shown) [Compound A24] | B (5 mg/kg<B≤10 mg/kg) | C (C: Water volume used is greater than or equal to 1.0 mL and less than 5.0 mL) |  |  |  |  | Onset time (SD rats [1]; [7]): 0.17 to 0.18 min; Righting Reflex Duration (SD rats [1]; [7]): 5.53 to 9.67 min; Sedation Duration (SD rats [1]; [7]): 19.33 to 38.80 min |
| COC(=O)[C@H](C)[N+]1(C)CCN(c2cc(C(C)C)c(O)c([C@H](C)C3CC3)c2)CC1 [Compound A25S] | D (D>20 mg/kg) |  |  |  |  |  |  |
| CCOC(=O)C(C1CC1)N1CCN(c2cc(C(C)C)c(O)c([C@H](C)C3CC3)c2)CC1 (stereo partly shown) [Compound A26] |  | A (A: Water volume used is less than 0.1 mL) | A (A≤5 mg/kg) | 0.42 to 0.43 min | 7.03 to 10.48 min | 14.75 to 21.28 min |  |
| CC(C)c1cccc(C(C)C)c1O [Propofol, reference compound] |  |  |  |  |  |  | water solubility [5]: insoluble in water; Approximate therapeutic index (SD rats [3]; vehicle Lipid emulsion): B (B when the index is <5 but ≥3) |
| CC(C)c1cccc([C@H](C)C2CC2)c1O [ciprofol] |  |  |  |  |  |  | water solubility [5]: insoluble in water |
| CC(C)c1cccc(C(C)C)c1OCOP(=O)(O)O [fospropofol disodium, Fospropofol disodium] |  |  |  |  |  |  | Onset time [6]: up to 2.9 minutes |

Source: patent publication US20260137676A1 (priority 2022, published 2026)
